Assay results from US11878967B2, “Crystalline forms of 1-(4-{[6-amino-5-(4-phenoxy-phenyl)-pyrimidin-4-ylamino]-methyl}-4-fluoro-piperidin-1-yl)-propenone, salt forms thereof, and processes to obtain” (Merck Patent GmbH, priority 2018, dated 2024).
Values after ≈ are worked out from the molar mass of the structure shown. Counter-ions that a name gives are not always drawn. Like-named read-outs stand apart in the source and are kept apart here.

Key:
Type in all cases: physicochemical
[1] = Water Vapour Sorption isotherm (25° C.), DVS system from SMS
Description: DSC scan of form A1 was acquired on a Mettler-Toledo DSC 1 with a heating rate of 5 K/min, using nitrogen purge gas at 50 mL/min. TGA scan of form A1 was acquired on a Mettler-Toledo TGA 851 with a heating rate of 5 K/min, using nitrogen purge gas at 50 mL/min. […] Eur. Criteria (section 5.11.). Water Vapour Sorption isotherm was acquired on a DVS-Intrinsic system from SMS. […] Dissolution level of form A1 in Fasted-State Simulated Intestinal Fluid [FaSSIF, pH 6.5] at 37° C. was determined to be approx. 17 μg/mL after 2 h (see example 7). […]
All forms were characterized according to standard methods which are found in e.g. Rolf Hilfiker, ‘Polymorphism in the Pharmaceutical Industry’, Wiley-VCH. Weinheim 2006 (Chapter 6: X-Ray Diffraction, Chapter 6: Vibrational Spectroscopy, Chapter 3: Thermal Analysis, Chapter 9: Water Vapour Sorption, and references therein); and H. G. Brittain, ‘Polymorphism in Pharmaceutical Solids, Vol. 95, Marcel Dekker Inc., New York 1999 (Chapter 6 and references therein).

[2] = Mini-dissolution in FaSSIF medium pH 6.5 at 37° C.; details: for Dissolution levels in FaSSIF pH 6.5: 37° C.; for Dissolution level (2 h) in FaSSIF, factor higher than A1: compared to crystalline neat form A1
Description: Approximately 10-20 mg of 1-(4-{[6-Amino-5-(4-phenoxy-phenyl)-pyrimidin-4-ylamino]-methyl}-4-fluoro-piperidin-1-yl)-propenone were weighed into glass vials. 7 mL of FaSSIF medium (pH 6.5, prewarmed to 37° C.) were added and the suspension was shaken at 450 rpm at 37° C. After 30 min, 60 min and 120 min, 1 mL suspension was withdrawn and filtered through a 0.2 μm syringe filter. Clear filtrate was analysed by HPLC after suitable dilution to measure the amount of API dissolved.

[3] = Thermodynamic solubility (24 h) at 37° C. of free base forms; details: for solubility thermodynamic at 24 h: 37 °C, thermodynamic from solid
Description: Approximately 10-20 mg of 1-(4-{[6-Amino-5-(4-phenoxy-phenyl)-pyrimidin-4-ylamino]-methyl}-4-fluoro-piperidin-1-yl)-propenone were weighed into a 4 mL glass vial. 1 mL of FaSSIF medium (pH 6.5) or USP Phosphate buffer pH 7.4 was added and the suspension was shaken for 24 h at 450 rpm at 37° C. After 1 h, 6 h and after 24 h the vials were checked for presence of undissolved compound and the pH was measured. If necessary, the pH was adjusted after 1 h and 6 h. The solid liquid separation was carried out using 1 mL syringe and 0.2 μm syringe filter. Clear filtrate was analysed by HPLC after suitable dilution to measure the amount of API dissolved.

[4] = relative humidity range 0-80% rh
[5] = relative humidity range 90-98% rh

Hygroscopicity classification acc. to Ph. Eur. criteria (section 5.11.) [1]	Water uptake levels [1, 4]	Water uptake levels [1, 5]	Dissolution levels in FaSSIF pH 6.5 ([2]; 30 min)	Dissolution levels in FaSSIF pH 6.5 ([2]; 60 min)	Compound	further results
slightly hygroscopic	≤ 1 % m/m	≤ 5 % m/m	55 μg/mL	43 μg/mL	C=CC(=O)N1CCC(F)(CNc2ncnc(N)c2-c2ccc(Oc3ccccc3)cc2)CC1 [HCl-NF1, 1-(4-{[6-Amino-5-(4-phenoxy-phenyl)-pyrimidin-4-ylamino]-methyl}-4-fluoro-piperidin-1-yl)-propenone]	Dissolution level (2 h) in FaSSIF, factor higher than A1 [2]: ~4
slightly hygroscopic	≤ 1 % m/m	≤ 5 % m/m	23 μg/mL	27 μg/mL	C=CC(=O)N1CCC(F)(CNc2ncnc(N)c2-c2ccc(Oc3ccccc3)cc2)CC1 [HBr-NF1, 1-(4-{[6-Amino-5-(4-phenoxy-phenyl)-pyrimidin-4-ylamino]-methyl}-4-fluoro-piperidin-1-yl)-propenone]	Dissolution level (2 h) in FaSSIF, factor higher than A1 [2]: ~3
slightly hygroscopic	≤ 1 % m/m	≤ 5 % m/m	22 μg/mL	39 μg/mL	C=CC(=O)N1CCC(F)(CNc2ncnc(N)c2-c2ccc(Oc3ccccc3)cc2)CC1 [Oxalate-NF1, 1-(4-{[6-Amino-5-(4-phenoxy-phenyl)-pyrimidin-4-ylamino]-methyl}-4-fluoro-piperidin-1-yl)-propenone]	Dissolution level (2 h) in FaSSIF, factor higher than A1 ([2]; listed as Oxalate salt form NF1): ~4
slightly hygroscopic	≤ 1 % m/m	≤ 2 % m/m	7 μg/mL	8 μg/mL	C=CC(=O)N1CCC(F)(CNc2ncnc(N)c2-c2ccc(Oc3ccccc3)cc2)CC1 [Free base form A2, 1-(4-{[6-Amino-5-(4-phenoxy-phenyl)-pyrimidin-4-ylamino]-methyl}-4-fluoro-piperidin-1-yl)-propenone]	Thermodynamic solubility FaSSIF pH 6.5 ([3]; Fasted-State Simulated Intestinal Fluid pH 6.5): 10 μg/mL; Thermodynamic solubility FaSSIF pH 6.5 ([3]; Fasted-State Simulated Intestinal Fluid pH 6.5, listed as form A2): approx. 10 μg/mL; Thermodynamic solubility PBS buffer 7.4 ([3]; USP Phosphate buffer pH 7.4): 2 µg/mL; Thermodynamic solubility PBS buffer 7.4 ([3]; USP Phosphate buffer pH 7.4, listed as form A2): approx. 2 μg/mL; Dissolution levels in FaSSIF pH 6.5 ([2]; 120 min (2 h)): 8 μg/mL; Dissolution levels in FaSSIF pH 6.5 ([2]; 120 min (2 h), listed as form A2): approx. 8 μg/mL
slightly hygroscopic	≤ 1 % m/m	≤ 2 % m/m	16 μg/mL	17 μg/mL	C=CC(=O)N1CCC(F)(CNc2ncnc(N)c2-c2ccc(Oc3ccccc3)cc2)CC1 [Free base form A1, 1-(4-{[6-Amino-5-(4-phenoxy-phenyl)-pyrimidin-4-ylamino]-methyl}-4-fluoro-piperidin-1-yl)-propenone]	solubility thermodynamic at 24 h ([3]; FaSSIF (Fasted-State Simulated Intestinal Fluid), pH 6.5, fassif, Fasted-State Simulated Intestinal Fluid pH 6.5, read-out: Thermodynamic solubility FaSSIF pH 6.5): ~17 µg/mL (≈ 38 µM); solubility thermodynamic at 24 h ([3]; USP Phosphate buffer, pH 7.4, aqueous buffer, USP Phosphate buffer pH 7.4, read-out: Thermodynamic solubility PBS buffer 7.4): ~1 µg/mL (≈ 2.23 µM); Dissolution levels in FaSSIF pH 6.5 ([2]; 120 min (2 h)): 17 μg/mL; Dissolution levels in FaSSIF pH 6.5 ([2]; 120 min (2 h), listed as form A1): approx. 17 μg/mL
slightly hygroscopic	≤ 1 % m/m	≤ 5 % m/m	–	–	C=CC(=O)N1CCC(F)(CNc2ncnc(N)c2-c2ccc(Oc3ccccc3)cc2)CC1 [Mesylate-NF1, 1-(4-{[6-Amino-5-(4-phenoxy-phenyl)-pyrimidin-4-ylamino]-methyl}-4-fluoro-piperidin-1-yl)-propenone]	–
slightly hygroscopic	≤ 1 % m/m	≥ 5 % m/m	–	–	C=CC(=O)N1CCC(F)(CNc2ncnc(N)c2-c2ccc(Oc3ccccc3)cc2)CC1 [HBr-NF2, 1-(4-{[6-Amino-5-(4-phenoxy-phenyl)-pyrimidin-4-ylamino]-methyl}-4-fluoro-piperidin-1-yl)-propenone]	–
slightly hygroscopic	≤ 1 % m/m	≤ 5 % m/m	–	–	C=CC(=O)N1CCC(F)(CNc2ncnc(N)c2-c2ccc(Oc3ccccc3)cc2)CC1 [Maleate-NF1, 1-(4-{[6-Amino-5-(4-phenoxy-phenyl)-pyrimidin-4-ylamino]-methyl}-4-fluoro-piperidin-1-yl)-propenone]	–
slightly hygroscopic	≤ 1 % m/m	≥ 5 % m/m	14 μg/mL	18 μg/mL	C=CC(=O)N1CCC(F)(CNc2ncnc(N)c2-c2ccc(Oc3ccccc3)cc2)CC1 [Fumarate-NF1, 1-(4-{[6-Amino-5-(4-phenoxy-phenyl)-pyrimidin-4-ylamino]-methyl}-4-fluoro-piperidin-1-yl)-propenone]	Dissolution level (2 h) in FaSSIF, factor higher than A1 ([2]; listed as Fumarate salt form NF1): ~2
